Laboratory results from PubChem BioAssay (NCI).
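Values below derive from 48-hour exposures of cells grown in 96-well plates, with endpoints linearly interpolated between the two concentrations bracketing the appropriate inhibition level. TGI: concentration producing complete growth inhibition.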

Assays:
Test in all cases: NCI tumour cell line growth inhibition, 48 h
[1] = system: SNB-75 CNS
[2] = system: MDA-MB-231 breast
[3] = system: OVCAR-4 ovarian
[4] = system: OVCAR-8 ovarian
[5] = system: T-47D breast
[6] = system: RPMI-8226 leukemia
[7] = system: NCI-H460 lung
[8] = system: U251 CNS
[9] = system: KM12 colon
[10] = system: NCI-H226 lung
[11] = system: HT29 colon
[12] = system: ACHN renal
[13] = system: IGROV1 ovarian
[14] = system: SN12C renal
[15] = system: 786-0 renal
[16] = system: DU-145 prostate
[17] = system: BT-549 breast
[18] = system: RXF 393 renal
[19] = system: A549 NSCLC
[20] = system: SK-MEL-28 melanoma
[21] = system: UACC-257 melanoma
[22] = system: MALME-3M melanoma
[23] = system: A498 renal
[24] = system: NCI-H23 lung
[25] = system: OVCAR-5 ovarian
[26] = system: SK-OV-3 ovarian
[27] = system: MOLT-4 leukemia
[28] = system: PC-3 prostate
[29] = system: SK-MEL-5 melanoma
[30] = system: UACC-62 melanoma
[31] = system: MCF7 breast
[32] = system: HCC-2998 colon
[33] = system: HCT-116 colon
[34] = system: NCI-H522 lung
[35] = system: K-562 leukemia
[36] = system: SR leukemia
[37] = system: CCRF-CEM leukemia
[38] = system: SNB-19 CNS
[39] = system: SF-268 CNS
[40] = system: MDA-MB-435
[41] = system: TK-10 renal
[42] = system: HOP-62 NSCLC
[43] = system: HS 578T breast
[44] = system: SW-620 colon
[45] = system: LOX IMVI melanoma
[46] = system: SF-539 CNS
[47] = system: OVCAR-3 ovarian
[48] = system: SK-MEL-2 melanoma
[49] = system: MDA-N
[50] = system: HL-60(TB) leukemia
[51] = system: COLO 205 colon
[52] = system: SF-295 CNS
[53] = system: EKVX NSCLC
[54] = system: HCT-15 colon
[55] = system: UO-31 renal
[56] = system: M14 melanoma
[57] = system: CAKI-1 renal
[58] = system: NCI/ADR-RES ovarian
[59] = system: HOP-92 NSCLC

Measured: TGI

CN(C)CCNC(=O)c1cc([N+](=O)[O-])cn1C
not listed: [58] | [59]
> 100 µM: all other assays above

CC(O)(CCCCCl)c1nc2ccccc2s1 (stereo unspecified)
not listed: [7] | [18] | [22] | [32] | [59]
> 100 µM: all other assays above

O=C1OC(c2ccccc2)=N/C1=C\c1ccc(F)cc1
not listed: [22] | [31] | [46] | [52]
> 100 µM: all other assays above
